One data set concerns the target T1, TAK1 (Homo sapiens, UniProt O43318).
T1 construct: purchased CEREP Panlabs (Eurofins)
T1 sequence (O43318 1-303 limits assumed): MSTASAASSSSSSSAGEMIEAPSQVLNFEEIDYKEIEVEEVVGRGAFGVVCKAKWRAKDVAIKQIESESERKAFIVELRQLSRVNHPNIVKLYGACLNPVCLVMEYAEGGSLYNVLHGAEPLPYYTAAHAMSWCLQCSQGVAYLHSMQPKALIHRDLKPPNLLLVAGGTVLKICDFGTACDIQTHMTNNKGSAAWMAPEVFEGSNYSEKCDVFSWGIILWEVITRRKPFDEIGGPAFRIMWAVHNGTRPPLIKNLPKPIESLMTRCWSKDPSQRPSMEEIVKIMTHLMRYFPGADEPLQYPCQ
T1 sequence (Q15750 437-504 partner limits assumed): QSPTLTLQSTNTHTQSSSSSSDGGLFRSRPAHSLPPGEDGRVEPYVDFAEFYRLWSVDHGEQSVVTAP
As to the kind of experiment: CEREP protein kinase assay. Format: biochemical.

The target of another data set is T2, EPHB1 (Homo sapiens, UniProt P54762).
T2 construct: purchased CEREP Panlabs (Eurofins)
T2 sequence (P54762 18-984): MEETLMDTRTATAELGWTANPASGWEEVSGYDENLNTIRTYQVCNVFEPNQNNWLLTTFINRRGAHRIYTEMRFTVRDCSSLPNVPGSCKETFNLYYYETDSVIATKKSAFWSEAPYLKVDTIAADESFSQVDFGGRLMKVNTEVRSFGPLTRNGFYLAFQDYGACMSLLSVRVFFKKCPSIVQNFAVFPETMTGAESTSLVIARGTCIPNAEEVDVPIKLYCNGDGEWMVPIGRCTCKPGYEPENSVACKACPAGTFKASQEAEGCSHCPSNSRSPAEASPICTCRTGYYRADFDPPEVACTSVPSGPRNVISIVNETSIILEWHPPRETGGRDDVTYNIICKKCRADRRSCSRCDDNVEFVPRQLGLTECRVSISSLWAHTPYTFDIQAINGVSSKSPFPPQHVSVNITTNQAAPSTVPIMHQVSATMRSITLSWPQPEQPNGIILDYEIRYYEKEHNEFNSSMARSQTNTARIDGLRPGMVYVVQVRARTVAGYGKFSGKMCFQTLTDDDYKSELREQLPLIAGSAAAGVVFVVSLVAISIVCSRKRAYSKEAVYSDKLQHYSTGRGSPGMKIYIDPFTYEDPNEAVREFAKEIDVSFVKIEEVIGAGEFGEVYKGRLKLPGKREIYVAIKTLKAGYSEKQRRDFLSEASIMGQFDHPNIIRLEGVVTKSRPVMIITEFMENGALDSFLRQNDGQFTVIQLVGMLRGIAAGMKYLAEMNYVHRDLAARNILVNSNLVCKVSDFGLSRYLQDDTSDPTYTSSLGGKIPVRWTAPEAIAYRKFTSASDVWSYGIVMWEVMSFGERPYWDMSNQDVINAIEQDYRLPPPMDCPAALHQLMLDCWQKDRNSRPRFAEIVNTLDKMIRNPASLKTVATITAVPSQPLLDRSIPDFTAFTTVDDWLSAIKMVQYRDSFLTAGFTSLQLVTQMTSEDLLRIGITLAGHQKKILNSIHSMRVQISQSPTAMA
As to the kind of experiment: CEREP protein kinase assay. Format: biochemical.

The target in the next data set is T3, JNK3 (Homo sapiens, UniProt P53779).
T3 construct: purchased CEREP Panlabs (Eurofins)
As to the kind of experiment: CEREP protein kinase assay. Format: biochemical.

The target of another data set is T4, ABL (Homo sapiens, UniProt P00519).
T4 construct: purchased CEREP Panlabs (Eurofins)
As to the kind of experiment: CEREP protein kinase assay. Format: biochemical.

Another data set deals with T5, PYK2 (Homo sapiens, UniProt Q14289).
T5 construct: purchased CEREP Panlabs (Eurofins)
As to the kind of experiment: CEREP protein kinase assay. Format: biochemical.

For data set [1] the following is noted: mouse, in vivo.
The target of a further data set is T6, MAPKAPK5 (Homo sapiens, UniProt Q8IW41).
T6 construct: purchased CEREP Panlabs (Eurofins)
T6 sequence (Q8IW41 1-473): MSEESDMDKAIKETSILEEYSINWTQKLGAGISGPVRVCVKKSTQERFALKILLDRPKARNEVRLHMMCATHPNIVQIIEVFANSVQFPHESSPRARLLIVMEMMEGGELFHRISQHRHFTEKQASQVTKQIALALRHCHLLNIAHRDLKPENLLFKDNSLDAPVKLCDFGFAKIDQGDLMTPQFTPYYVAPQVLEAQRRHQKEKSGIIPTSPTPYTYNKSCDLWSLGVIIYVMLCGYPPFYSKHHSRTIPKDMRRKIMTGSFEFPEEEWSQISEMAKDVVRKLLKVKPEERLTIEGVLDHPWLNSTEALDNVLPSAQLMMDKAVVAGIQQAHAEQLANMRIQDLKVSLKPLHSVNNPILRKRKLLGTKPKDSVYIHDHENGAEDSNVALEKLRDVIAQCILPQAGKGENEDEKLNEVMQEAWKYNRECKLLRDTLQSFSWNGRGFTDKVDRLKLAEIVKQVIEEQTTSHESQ
Description: CEREP protein kinase assay. Format: biochemical.

Data set [2] concerns AMPK T172 phosphorylation in MDA-MB-231met2 tumors. As to the kind of experiment: Western analysis of tumors. Format: in vivo, mouse. The settings on record: 30 and 60 mg/kg BIDx22 PO. The method, then: (§1) The levels of total AMPKα and P70S6K are also shown. […] The levels of total AMPKα are also shown. […] Full images and the croppings used in this figure are shown in Supplemental Figures S14–S21.
(§2) Antibodies were purchased as follows: pAMPK Thr172 (Cell Signaling #2535), p-p70S6 Thr389 (Cell Signaling #9205), total p70S6 (Cell Signaling #2708), total AMPKα (Cell Signaling #2793) and Actin (Sigma #A5441). Frozen tumor samples were lysed with 500 µL ice cold lysis buffer plus Halt protease inhibitor (ThermoFisher #78430) using a Power Gen 125 tissue grinder (Fisher Scientific). Western blots were run as described in the supplemental material.
(§3) For the in vivo study with MDA-MB-231met2 (Figure 6A) 40 ug of total protein was resolved on a 10% Tris HCl Criterion XT precast gel (BioRad) at 100 V for 90 minutes. Transfer electrophoresed proteins to a 0.2 µm nitrocellulose membrane using Trans Blot Turbo System (BioRad). Block membranes for 1 hr at RT in 5% skim milk. Probe overnight 4°C for primary antibodies. Blots were washed 3-5 min in 20 mL TBS-0.1% Tween-20. Apply appropriate secondary antibody for 1-3 hours RT. Wash blots 3 x 5 min in 20 mL TBS-0.1% Tween20 and develop signal using Super Signal Western Femto kit (Thermo) on Image Reader LAS-4000 (Fuji Film Life Science).

The subject of data set [3] is P70S6K T389 phosphorylation in MDA-MB-231met2 tumors. As to the kind of experiment: Western analysis of tumors. Format: in vivo, mouse. The following applies: 30 and 60 mg/kg BIDx22 PO. The method, then:
as §1, §2, §3

T4 sequence (P00519 whole entry): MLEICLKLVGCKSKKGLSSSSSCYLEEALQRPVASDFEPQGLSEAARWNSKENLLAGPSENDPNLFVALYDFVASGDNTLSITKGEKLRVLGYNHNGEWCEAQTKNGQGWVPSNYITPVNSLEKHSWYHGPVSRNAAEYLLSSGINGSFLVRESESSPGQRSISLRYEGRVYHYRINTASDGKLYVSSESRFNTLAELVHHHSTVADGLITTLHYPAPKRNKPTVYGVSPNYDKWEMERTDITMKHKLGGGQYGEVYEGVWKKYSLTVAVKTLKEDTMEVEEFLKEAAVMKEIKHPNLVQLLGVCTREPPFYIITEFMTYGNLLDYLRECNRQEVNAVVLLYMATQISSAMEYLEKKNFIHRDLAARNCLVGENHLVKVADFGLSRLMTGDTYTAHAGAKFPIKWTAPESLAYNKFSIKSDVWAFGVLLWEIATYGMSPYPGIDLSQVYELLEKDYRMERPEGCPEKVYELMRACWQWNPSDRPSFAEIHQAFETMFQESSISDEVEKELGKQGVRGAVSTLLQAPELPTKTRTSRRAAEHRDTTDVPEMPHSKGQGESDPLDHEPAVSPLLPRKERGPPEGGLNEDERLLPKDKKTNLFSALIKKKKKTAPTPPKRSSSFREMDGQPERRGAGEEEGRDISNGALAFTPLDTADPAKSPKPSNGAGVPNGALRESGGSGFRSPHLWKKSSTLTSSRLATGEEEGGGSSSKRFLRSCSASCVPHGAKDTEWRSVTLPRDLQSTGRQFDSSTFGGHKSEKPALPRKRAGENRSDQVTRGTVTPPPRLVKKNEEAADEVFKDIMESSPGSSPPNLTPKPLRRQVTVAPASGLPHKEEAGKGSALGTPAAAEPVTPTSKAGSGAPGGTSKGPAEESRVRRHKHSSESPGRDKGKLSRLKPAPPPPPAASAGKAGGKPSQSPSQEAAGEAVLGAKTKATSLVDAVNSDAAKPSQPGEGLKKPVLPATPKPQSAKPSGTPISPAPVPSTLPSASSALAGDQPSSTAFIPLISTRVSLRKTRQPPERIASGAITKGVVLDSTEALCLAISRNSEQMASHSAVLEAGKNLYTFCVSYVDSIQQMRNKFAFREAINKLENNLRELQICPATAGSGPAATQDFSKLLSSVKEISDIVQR
T5 sequence (Q14289 whole entry): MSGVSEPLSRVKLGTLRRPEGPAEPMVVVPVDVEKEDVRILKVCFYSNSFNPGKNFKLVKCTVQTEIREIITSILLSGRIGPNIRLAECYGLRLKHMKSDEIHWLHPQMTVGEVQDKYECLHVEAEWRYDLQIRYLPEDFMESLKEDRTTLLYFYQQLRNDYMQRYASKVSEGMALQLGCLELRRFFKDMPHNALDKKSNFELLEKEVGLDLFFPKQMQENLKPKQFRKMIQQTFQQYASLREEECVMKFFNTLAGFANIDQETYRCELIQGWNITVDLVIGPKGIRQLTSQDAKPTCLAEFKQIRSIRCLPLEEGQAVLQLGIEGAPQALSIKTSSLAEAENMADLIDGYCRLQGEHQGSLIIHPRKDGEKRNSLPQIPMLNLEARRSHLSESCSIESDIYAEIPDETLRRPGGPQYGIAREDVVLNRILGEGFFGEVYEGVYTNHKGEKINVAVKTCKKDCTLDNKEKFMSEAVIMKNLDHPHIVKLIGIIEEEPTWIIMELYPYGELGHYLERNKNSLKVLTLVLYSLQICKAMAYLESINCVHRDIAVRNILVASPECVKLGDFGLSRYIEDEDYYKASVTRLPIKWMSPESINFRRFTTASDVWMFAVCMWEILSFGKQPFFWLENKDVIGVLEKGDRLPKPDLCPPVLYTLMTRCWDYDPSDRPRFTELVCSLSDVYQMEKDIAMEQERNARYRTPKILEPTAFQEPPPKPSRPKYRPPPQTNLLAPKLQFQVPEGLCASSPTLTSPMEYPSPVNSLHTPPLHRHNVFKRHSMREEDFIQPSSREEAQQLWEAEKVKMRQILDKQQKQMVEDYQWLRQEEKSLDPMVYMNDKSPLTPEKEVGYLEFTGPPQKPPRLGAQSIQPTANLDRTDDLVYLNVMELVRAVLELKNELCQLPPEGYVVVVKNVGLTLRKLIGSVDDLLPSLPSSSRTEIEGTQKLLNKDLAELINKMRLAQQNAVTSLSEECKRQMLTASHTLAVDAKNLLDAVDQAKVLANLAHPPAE
T3 sequence (P53779 whole entry): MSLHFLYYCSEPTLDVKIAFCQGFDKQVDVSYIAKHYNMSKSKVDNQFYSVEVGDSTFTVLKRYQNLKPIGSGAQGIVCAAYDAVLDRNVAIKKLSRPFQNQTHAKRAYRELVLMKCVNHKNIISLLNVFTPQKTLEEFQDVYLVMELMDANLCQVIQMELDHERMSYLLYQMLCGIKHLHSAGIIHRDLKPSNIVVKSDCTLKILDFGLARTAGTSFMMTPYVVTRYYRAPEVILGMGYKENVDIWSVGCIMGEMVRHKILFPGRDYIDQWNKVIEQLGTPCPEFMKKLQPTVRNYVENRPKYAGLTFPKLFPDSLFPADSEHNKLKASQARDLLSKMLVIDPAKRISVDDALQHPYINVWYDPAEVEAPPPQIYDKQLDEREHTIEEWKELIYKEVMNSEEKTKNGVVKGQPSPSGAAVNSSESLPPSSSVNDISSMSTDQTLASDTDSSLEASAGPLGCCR

The term inhibition denotes the drop in the measured response relative to a control, in per cent. For `O=c1[nH]ccc2cc(F)c(NS(=O)(=O)c3ccc(N4CC[C@@H](O)C4)s3)cc12` [LSN3213128, N-(6-Fluoro-1-oxo-1,2-dihydroisoquinolin-7-yl)-5-[(3R)-3-hydroxypyrrolidin-1-yl]thiophene-2-sulfonamide], the inhibition at 0.2 µM was -0.355% against TAK1 (@ 0.2 uM); -10.2% at EPHB1 (@ 0.2 uM); -0.752% at JNK3 (@ 0.2 uM); -13.8% at ABL (@ 0.2 uM); -25.1% on PYK2 (@ 0.2 uM); 3.51% at MAPKAPK5 (@ 0.2 uM). In addition, the inhibition at 2 µM against TAK1 (@ 2 uM) was 4.6%; against EPHB1 (@ 2 uM), 11.7%; against JNK3 (@ 2 uM) it was 19.2%; against ABL (@ 2 uM) it was -14.6%; at PYK2 (@ 2 uM), -1.17%; at MAPKAPK5 (@ 2 uM) it was 13.3%. The inhibition at 20 µM against TAK1 (@ 20 uM) was 19.3%; on EPHB1 (@ 20 uM) it was 57.1%; against JNK3 (@ 20 uM) it was 76.2%; against ABL (@ 20 uM), -0.27%; at PYK2 (@ 20 uM), 16.5%; against MAPKAPK5 (@ 20 uM), -3.2%. The “tolerability of efficacy studies” value in [1] is listed as “toxicity upon repeated dosing”. Moreover, the “AMPK T172 phosphorylation levels in vivo” value in [2] is given as “remained elevated”. Besides, in [3], the “P70S6K T389 phosphorylation” value is given as “showed no change”.

(Values after article PMC6193938, “Characterization of a novel AICARFT inhibitor which potently elevates ZMP and has anti-tumor activity in murine models” (Scientific Reports, 2018).)
